The values that follow come from patent US11278629B2, “Methods for improving anti-CD37 immunoconjugate therapy” (Debiopharm International, S.A., priority 2016, dated 2022).

For orientation: IC50 means the concentration at which inhibition is half-maximal.

In assay [1] the test system is lymphoma cell lines. As to the kind of experiment: Cell proliferation, MTT assay, fifty-four lymphoma cell lines. The class given is cell-based. The note with it: 72 hours exposure, read-out: median IC50. The text has this:
(§1) Fifty-four lymphoma cell lines (ALCL, anaplastic large cell lines (n=5); CLL, chronic lymphocytic leukemia (n=2); ABC-DLBCL, activated B cell like diffuse large B cell (n=7); GCB-DLBCL, germinal center B cell like diffuse large B cell (n=20); MCL, mantle cell lymphoma (n=10); MZL, marginal zone lymphoma (n=6); PMBCL, Primary Mediastinal Large B-Cell Lymphoma (n=1); SMZL, splenic marginal zone lymphoma (n=3)) were exposed to increasing doses of IMGN529 or to the unconjugated cytotoxic payload DM1 for 72 hours. Cell proliferation was measured using the MTT assay. Apoptosis induction was defined by at least a 1.5-fold increase in caspase 3/7 signal activation with respect to controls using the Promega ApoTox-Glo Triplex Assay. CD37 surface expression was assessed by cytofluorimetry. Gene expression profiling (GEP) was done with the Illumina HumanHT-12 Expression BeadChips on untreated cell lines followed by GSEA (NES>|2|, P<0.05, FDR<0.25) and limma t-test (FC>|1.2|; P<0.05; top 200 up and top 200 down).

Assay [2] has as its system lymphoma cell lines. In words: Apoptosis induction, caspase 3/7 activation (Promega ApoTox-Glo Triplex Assay). The note with it: 33/54 cell lines; apoptosis = at least 1.5-fold increase in caspase 3/7 signal vs controls. The class given is cell-based.
Description: as §1

As to `COc1cc2cc(c1Cl)N(C)C(=O)C[C@H](OC(=O)[C@H](C)N(C)C(=O)CCS)[C@]1(C)O[C@H]1[C@H](C)C1C[C@@](O)(NC(=O)O1)[C@H](OC)/C=C/C=C(\C)C2` [DM1, N^2′-deacetyl-N^2′-(3-mercapto-1-oxopropyl)-maytansine], the IC50 with lymphoma cell lines [1] was 30 pM.
Regarding “IMGN529: immunoconjugate containing the huCD37-3 antibody, the SMCC linker, and the DM1 maytansinoid”, the “lymphoma cell lines in which apoptosis was induced” value with lymphoma cell lines [2] is recorded as 61%.
